Source: US8471009B2, “(EN) 2-alkylamino-3-arylsulfonyl-cycloalcano [e OR d] pyrazolo [1,5-A]pyrimidines / antagonists of serotonin 5-HT6 receptors, methods for the production and the use thereof” (priority 2008, dated 2013)

Columns and labels:
[1] = test system: mice behavior in elevated plus maze; test: Mice Behavior in the Elevated Plus Maze (anxiolytic action); format: in vivo; conditions: five minutes
Text: Anxiolytic (tranquilizing) action of compounds of general formulas 1 and 2 in the test “Mice Behavior in the Elevated Plus Maze”. The length of each arm of the maze is 30 cm, width is 5 cm, and height of walls is 15 cm. Two opposite arms are closed from both sides and end faces by transparent walls, the other two arms are lit and opened. A mouse was placed in the center of maze, and for the next five minutes the number of entries into opened and closed arms and the time spent in each type of arms was registered. […] The animals usually avoid opened arms (the preference index is between 0.2 and 0.3). Compounds with tranquilizing action increase this index up to 0.5-0.6 or even more and reduce the number of defecations without changing the overall motion activity of the mice (the total number of entries to the arms).

[2] = test system: memory disturbed by Scopolamine; test: Passive Avoidance of mice in the Shuttle Chamber, memory disturbed by Scopolamine; format: in vivo; conditions: aged male BALB/c mice; Scopolamine 0.3 mg/kg, injected 30 minutes before training; retest in 22-24 hours
Experimental: A shuttle chamber (Ugo Basile, Italy) consisted of two sections was used. The walls of one section were opaque while the other section had transparent cover. The sections were connected through a hole which could be overlapped by vertical door. The floor was made of transverse metal bars on which DC current impulses could be fed. Experiments were carried out in aged male mice of BALB/c line weighing 20-24 grams.
On the first day of testing 30 minutes before training mice were injected intraintestinally with physiological solutions of Scopolamine (0.3 mg/kg) or Scopolamine in combination with active ingredient 1.1(1). Each group consisted of at least 8 animals. Animals were placed in light section, and latent period of the first entry into dark chamber was registered. Then vertical door was closed and the animal was punished by 0.6 mA DC current for 3 seconds. After that the animal was taken back to its homecage. In 22-24 hours the same animal was placed again in light section of the shuttle chamber and latent period of its first entry into dark section, the total time of its stay in light section and the number of entries into dark section, was registered. Each monitoring lasted for 5 minutes.
Testing was carried out during the day time in isolated laboratory using white noise at level of about 70 decibel above human hearing threshold. […]

[3] = test system: memory disturbed by MK-801; test: Passive Avoidance of mice in the Shuttle Chamber, memory disturbed by MK-801; format: in vivo; conditions: MK-801 0.1 mg/kg, injected 30 minutes before training
Experimental: The testing was carried out as in example 7. On the first day of testing 30 minutes before training the mice were injected intraintestinally with physiological solution of MK-801 (0.1 mg/kg). Concurrently, physiological solution of MK-801 in combination with active ingredient 1.1(1) was injected intraintestinally to independent groups of mice before training.

[4] = molecular target: T1, recombinant human 5-HT6 receptors (Homo sapiens, UniProt P50406); test: Competitive radioligand binding ([3H] Lysergic acid diethylamide) to membranes of HeLa cells expressing recombinant human 5-HT6 receptors; conditions: 1.5 nM [3H] Lysergic acid diethylamide, 120 min, 37° C., HeLa cell membranes; for IC50: read-out: IC50 of serotonin 5-HT6 receptor inhibition in the setting of competitive binding; for Ki: read-out: Ki of serotonin 5-HT6 receptor inhibition in the setting of competitive binding
T1 construct: expressed in transfected cells; host or cells: HeLa (membrane preparation)
T1 sequence (P50406 whole entry): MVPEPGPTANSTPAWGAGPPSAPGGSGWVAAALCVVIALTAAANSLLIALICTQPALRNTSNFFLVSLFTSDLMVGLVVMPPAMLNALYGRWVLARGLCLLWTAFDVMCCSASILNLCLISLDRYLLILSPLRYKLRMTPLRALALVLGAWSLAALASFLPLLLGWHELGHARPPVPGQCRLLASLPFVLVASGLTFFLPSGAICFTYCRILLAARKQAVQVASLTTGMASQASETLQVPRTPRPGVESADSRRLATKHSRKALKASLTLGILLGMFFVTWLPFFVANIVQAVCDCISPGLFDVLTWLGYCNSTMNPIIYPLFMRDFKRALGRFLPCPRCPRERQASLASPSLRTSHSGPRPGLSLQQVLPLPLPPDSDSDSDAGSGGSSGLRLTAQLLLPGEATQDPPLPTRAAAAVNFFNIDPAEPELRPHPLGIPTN
Experimental: Activity determination of serotonin 5-HT6 receptor antagonists of the general formula 1 in the setting of competitive binding to serotonin 5-HT6 receptors.
Screening of disclosed compounds for their potential ability to interact with serotonin 5-HT6 receptors was carried out by method of radioligand binding. For this purpose membrane species were prepared from expressing recombinant human 5-HT6 receptors HeLa cells by means of their homogenization in glass homogenizer with subsequent separation of plasmatic membranes from cell nucli, mitochondria's and cell wreckages by differential centrifugation. […] Mol Pharmacol. 43:320-327, 1993]. In the preferred embodiment membrane preparations were incubated with radioligand (1.5 nM [^3H] Lysergic acid diethylamide) without and in the presence of investigated compounds for 120 min at 37° C. in medium consisting of […], pH 7.4, 150 mM NaCl, 2 mM Ascorbic Acid, 0.001% BSA. After incubation the samples were filtered in vacuo on glass-microfiber filters G/F (Millipor, USA), filters were washed three times with cold solution of medium and radioactivity was measured by scintillation counter MicroBeta 340 (PerkinElmer, USA). Nonspecific binding which made up 30% of overall binding was determined by incubation of membrane preparations with radioligand in the presence of 5 μM Serotonin (5-HT). Methiothepin was used as positive control. Binding of tested compounds with the receptor was determined by their ability to displace the radioligand and expressed in percent of displacement. The percent of displacement was calculated according to the following equation:
[formula] wherein: TA—was overall radioactivity in the presence of radioligand only, CA—was radioactivity in the presence of radioligand and tested compound and NA—was radioactivity in the presence of radioligand and Serotonin (5 μM).
Table 4 presents the test results for some serotonin 5-HT6 receptor antagonists of general formulas 1 and 2 in the setting of competitive binding to serotonin 5-HT6 receptors, testifying their high activity towards serotonin 5-HT6 receptors.

serotonin 5-HT6 receptor = molecular target: T2, serotonin 5-HT6 receptor (Homo sapiens, UniProt P50406); test: Functional assay: antagonism of serotonin-induced intracellular cAMP (LANCE cAMP) in HEK 293 cells expressing 5-HT6 receptor; format: cell-based; conditions: HEK 293 cells with expressed 5-HT6 receptor, read-out: IC50 of serotonin 5-HT6 receptor inhibition in the setting of functional assay
T2 construct: expressed in transfected cells; host or cells: HEK 293
T2 sequence (P50406 whole entry): as above
Experimental: Determination of antagonistic activity of compounds of general formula 1 towards 5-HT6 receptors. Compounds of general formula 1 were tested for their ability to prevent 5-HT6 receptors activation by serotonin. HEK 293 cells (cells of human embryo's kidney) with artificially expressed 5-HT6 receptor, activation of which by serotonin leads to increasing the concentration of intracellular cAMP were used. The content of intracellular cAMP was determined using reagent kit LANCE cAMP (PerkinElmer) according to the method described by the manufacturer of the kit [http://las.perkinelmer.com/content/Manuals/MAN_LANCEcAMP384KitUser.pdf]. Effectiveness of compounds was estimated by their ability to reduce the content of intracellular cAMP induced by serotonin. Table 3 presents ICso values of serotonin 5-HT6 receptor inhibition by antagonists of general formula 1 and 2 in the setting of functional assay. The data given testify their high antagonistic activity.

| SMILES | Anxiolytic (tranquilizing) action [1] | Nootropic action (enhancement of memory disturbed by Scopolamine) [2] | Nootropic action (enhancement of memory disturbed by MK-801) [3] | IC50 [4] | Ki [4] | IC50 (serotonin 5-HT6 receptor) |
| --- | --- | --- | --- | --- | --- | --- |
| CNc1nn2c3c(cnc2c1S(=O)(=O)c1ccccc1)CCC3 [1.1(1), 2-methylamino-3-(phenylsulfonyl)-7,8-dihydro-6H-cyclopenta[e]pyrazolo[1,5-a]pyrimidine] | anxiolytic (tranquilizing) action which is comparable with the activity of Buspirone and Lorasepam | nootropic action | nootropic effect | 0.157 nM | 0.073 nM | 4.8 nM |
| CNc1nn2c3c(c(C)nc2c1S(=O)(=O)c1ccccc1)CCC3 [1.1(3), 5-methyl-2-methylamino-3-(phenylsulfonyl)-7,8-dihydro-6H-cyclopenta[e]pyrazolo[1,5-a]pyrimidine] | – | – | – | 0.436 nM | 0.202 nM | 7 nM |
| CNc1nn2c3c(cnc2c1S(=O)(=O)c1ccccc1)CCCC3 [1.2(1), 2-methylamino-3-(phenylsulfonyl)-6,7,8,9-tetrahydrocyclohexa[e]pyrazolo[1,5-a]pyrimidine] | – | – | – | 0.241 nM | 0.112 nM | 4.4 nM |
| CNc1nn2c3c(c(C)nc2c1S(=O)(=O)c1ccccc1)CCCC3 [1.2(3), 5-methyl-2-methylamino-(3-phenylsulfonyl)-6,7,8,9-tetrahydrocyclohexa[e]pyrazolo[1,5-a]pyrimidine] | – | – | – | 1.05 nM | 0.49 nM | – |
| CNc1nn2cc3c(nc2c1S(=O)(=O)c1ccccc1)CCCC3 [2(1)] | – | – | – | 1.07 nM | 0.499 nM | 7.5 nM |
| CNc1nn2c(C)c3c(nc2c1S(=O)(=O)c1ccccc1)CCCC3 [2(2)] | – | – | – | 0.551 nM | 0.256 nM | 15.5 nM |
